Test results taken from the supplement of paper PMC9663587.

How the values were obtained:
[1] = compound: C=CC(=O)Nc1ccc(C(=O)Nc2[nH]nc3c2CN(C(=O)N[C@H](CN(C)C)c2ccccc2)C3(C)C)cc1 [YKL-5-124]; assay: increase in dead-cell fraction, 72 h; higher = more death;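 further: breast cancer cell lines in 384-well plates, stained with Hoechst plus LIVE/DEAD far red dye and imaged, cells above an LDR intensity threshold counted dead, Hoechst-negative corpses included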
[2] = compound: CC(=O)c1c(C)c2cnc(Nc3ccc(N4CCN(CCOCCOCCOCCNC(=O)COc5cccc6c5C(=O)N(C5CCC(=O)NC5=O)C6=O)CC4)cn3)nc2n(C2CCCC2)c1=O [BSJ-03-123]; assay: as above
[3] = compound: CC(=O)c1c(C)c2cnc(Nc3ccc(N4CCNCC4)cn3)nc2n(C2CCCC2)c1=O; assay: as above
[4] = compound: CCN1CCN(Cc2ccc(Nc3ncc(F)c(-c4cc(F)c5nc(C)n(C(C)C)c5c4)n3)nc2)CC1; assay: as above
[5] = compound: T1, CCOc1cc2ncc(C#N)c(Nc3ccc(OCc4ccccn4)c(Cl)c3)c2cc1NC(=O)/C=C/CN(C)C [Neratinib/HKI272]; assay: as above
[6] = compound: CCc1cnn2c(NCc3ccc[n+]([O-])c3)cc(N3CCCC[C@H]3CCO)nc12; assay: as above
[7] = compound: CN(C)C(=O)c1cc2cnc(Nc3ccc(N4CCNCC4)cn3)nc2n1C1CCCC1 [LEE011/Ribociclib]; assay: as above
[8] = compound: CN(C)C/C=C/C(=O)Nc1ccc(C(=O)N2CCC[C@@H](Nc3ncc(Cl)c(-c4c[nH]c5ccccc45)n3)C2)cc1 [THZ531]; assay: as above
[9] = compound: CN(C)C/C=C/C(=O)Nc1ccc(C(=O)Nc2cccc(Nc3ncc(Cl)c(-c4c[nH]c5ccccc45)n3)c2)cc1 [THZ1]; assay: as above
[10] = compound: T2, CN1CC[C@H](c2c(O)cc(O)c3c(=O)cc(-c4ccccc4Cl)oc23)[C@H](O)C1 [Flavopiridol]; assay: as above
[11] = compound: T1, Neratinib/HKI272; assay: GR value, 72 h; higher = faster growth (1 = untreated, <0 = killing);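 further: breast cancer and non-malignant breast epithelial lines, nine half-log doses, viable cells counted by Hoechst and LIVE/DEAD dye imaging versus time-zero plates and DMSO controls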
[12] = compound: T2, Flavopiridol; assay: as above

Cell Line: MCF7
- increase in dead-cell fraction ([1]; 0.001 µM): 0.0137
- increase in dead-cell fraction ([1]; 0.003162 µM): 0.0144
- increase in dead-cell fraction ([1]; 0.01 µM): 0.0219
- increase in dead-cell fraction ([1]; 0.03162 µM): 0.0284
- increase in dead-cell fraction ([1]; 0.1 µM): 0.0263
- increase in dead-cell fraction ([1]; 0.3162 µM): 0.0411
- increase in dead-cell fraction ([1]; 1 µM): 0.0356
- increase in dead-cell fraction ([1]; 3.162 µM): 0.039
- increase in dead-cell fraction ([1]; 10 µM): 0.203
- increase in dead-cell fraction ([2]; 0.001 µM): 0.0009
- increase in dead-cell fraction ([2]; 0.003162 µM): 0.0021
- increase in dead-cell fraction ([2]; 0.01 µM): 0.0018
- increase in dead-cell fraction ([2]; 0.03162 µM): 0.0017
- increase in dead-cell fraction ([2]; 0.1 µM): 0.0038
- increase in dead-cell fraction ([2]; 0.3162 µM): 0.0034
- increase in dead-cell fraction ([2]; 1 µM): 0.008
- increase in dead-cell fraction ([2]; 3.162 µM): 0.0042
- increase in dead-cell fraction ([2]; 10 µM): 0.274
- increase in dead-cell fraction ([3]; 0.0003162 µM): -0.0006
- increase in dead-cell fraction ([3]; 0.001 µM): -0.0004
- increase in dead-cell fraction ([3]; 0.003162 µM): 0.002
- increase in dead-cell fraction ([3]; 0.01 µM): 0.0051
- increase in dead-cell fraction ([3]; 0.03162 µM): 0.0099
- increase in dead-cell fraction ([3]; 0.1 µM): 0.0195
- increase in dead-cell fraction ([3]; 0.3162 µM): 0.022
- increase in dead-cell fraction ([3]; 1 µM): 0.0362
- increase in dead-cell fraction ([3]; 3.162 µM): 0.0308
- increase in dead-cell fraction ([4]; 0.001 µM): 0.0009
- increase in dead-cell fraction ([4]; 0.003162 µM): 0.0022
- increase in dead-cell fraction ([4]; 0.01 µM): 0.0141
- increase in dead-cell fraction ([4]; 0.03162 µM): 0.0241
- increase in dead-cell fraction ([4]; 0.1 µM): 0.0305
- increase in dead-cell fraction ([4]; 0.3162 µM): 0.0363
- increase in dead-cell fraction ([4]; 1 µM): 0.0543
- increase in dead-cell fraction ([4]; 3.162 µM): 0.277
- increase in dead-cell fraction ([4]; 10 µM): 0.373
- increase in dead-cell fraction ([5]; 0.0003162 µM): 0
- increase in dead-cell fraction ([5]; 0.001 µM): 0.0036
- increase in dead-cell fraction ([5]; 0.003162 µM): 0.0018
- increase in dead-cell fraction ([5]; 0.01 µM): 0.0034
- increase in dead-cell fraction ([5]; 0.03162 µM): 0.0035
- increase in dead-cell fraction ([5]; 0.1 µM): 0.0017
- increase in dead-cell fraction ([5]; 0.3162 µM): 0.0089
- increase in dead-cell fraction ([5]; 1 µM): 0.0125
- increase in dead-cell fraction ([5]; 3.162 µM): 0.164
- increase in dead-cell fraction ([6]; 0.0001 µM): 0.0003
- increase in dead-cell fraction ([6]; 0.0003162 µM): -0.0006
- increase in dead-cell fraction ([6]; 0.001 µM): -0.0004
- increase in dead-cell fraction ([6]; 0.003162 µM): 0.0012
- increase in dead-cell fraction ([6]; 0.01 µM): 0.0757
- increase in dead-cell fraction ([6]; 0.03162 µM): 0.319
- increase in dead-cell fraction ([6]; 0.1 µM): 0.272
- increase in dead-cell fraction ([6]; 0.3162 µM): 0.225
- increase in dead-cell fraction ([6]; 1 µM): 0.229
- increase in dead-cell fraction ([7]; 0.001 µM): 0.0006
- increase in dead-cell fraction ([7]; 0.003162 µM): 0.0004
- increase in dead-cell fraction ([7]; 0.01 µM): 0.0034
- increase in dead-cell fraction ([7]; 0.03162 µM): 0.0049
- increase in dead-cell fraction ([7]; 0.1 µM): 0.0006
- increase in dead-cell fraction ([7]; 0.3162 µM): 0.0139
- increase in dead-cell fraction ([7]; 1 µM): 0.0076
- increase in dead-cell fraction ([7]; 3.162 µM): 0.0151
- increase in dead-cell fraction ([7]; 10 µM): 0.0147
- increase in dead-cell fraction ([8]; 0.0001 µM): 0.0003
- increase in dead-cell fraction ([8]; 0.0003162 µM): -0.0011
- increase in dead-cell fraction ([8]; 0.001 µM): 0.0038
- increase in dead-cell fraction ([8]; 0.003162 µM): -0.0013
- increase in dead-cell fraction ([8]; 0.01 µM): 0.0059
- increase in dead-cell fraction ([8]; 0.03162 µM): 0.0084
- increase in dead-cell fraction ([8]; 0.1 µM): 0.125
- increase in dead-cell fraction ([8]; 0.3162 µM): 0.185
- increase in dead-cell fraction ([8]; 1 µM): 0.355
- increase in dead-cell fraction ([9]; 0.0001 µM): -0.0005
- increase in dead-cell fraction ([9]; 0.0003162 µM): 0.0028
- increase in dead-cell fraction ([9]; 0.001 µM): 0.0017
- increase in dead-cell fraction ([9]; 0.003162 µM): 0.0005
- increase in dead-cell fraction ([9]; 0.01 µM): 0.0078
- increase in dead-cell fraction ([9]; 0.03162 µM): 0.0606
- increase in dead-cell fraction ([9]; 0.1 µM): 0.196
- increase in dead-cell fraction ([9]; 0.3162 µM): 0.176
- increase in dead-cell fraction ([9]; 1 µM): 0.338
- increase in dead-cell fraction ([10]; 0.0001 µM): -0.0023
- increase in dead-cell fraction ([10]; 0.0003162 µM): 0.0009
- increase in dead-cell fraction ([10]; 0.001 µM): 0.0003
- increase in dead-cell fraction ([10]; 0.003162 µM): 0.0007
- increase in dead-cell fraction ([10]; 0.01 µM): 0.0049
- increase in dead-cell fraction ([10]; 0.03162 µM): 0.0017
- increase in dead-cell fraction ([10]; 0.1 µM): 0.0144
- increase in dead-cell fraction ([10]; 0.3162 µM): 0.257
- increase in dead-cell fraction ([10]; 1 µM): 0.183
- GR value ([11]; 0.0003162 µM): 1.04 GR
- GR value ([11]; 0.001 µM): 1.03 GR
- GR value ([11]; 0.003162 µM): 0.998 GR
- GR value ([11]; 0.01 µM): 0.951 GR
- GR value ([11]; 0.03162 µM): 0.947 GR
- GR value ([11]; 0.1 µM): 0.931 GR
- GR value ([11]; 0.3162 µM): 0.774 GR
- GR value ([11]; 1 µM): 0.657 GR
- GR value ([11]; 3.162 µM): 0.0611 GR
- GR value ([12]; 0.0001 µM): 1.08 GR
- GR value ([12]; 0.0003162 µM): 0.929 GR
- GR value ([12]; 0.001 µM): 0.872 GR
- GR value ([12]; 0.003162 µM): 0.964 GR
- GR value ([12]; 0.01 µM): 0.873 GR
- GR value ([12]; 0.03162 µM): 0.834 GR
- GR value ([12]; 0.1 µM): 0.424 GR
- GR value ([12]; 0.3162 µM): -0.258 GR
- GR value ([12]; 1 µM): -0.272 GR
